The test system of the test is RBL 2H3 cells. The test is described as follows: assay for degranulation of the RBL 2H3 cells (release of β-hexose-aminidase induced by anti-DNP IgE and DNP-BSA antigen). It counts as cell-based, rat. From the text: The RBL 2H3 cell line, rat basophils that express the receptor with high affinity for the immunoglobulins of class E (FcεRl), is widely used for investigating allergic reactions, because in this cell line the chemical mediators of inflammation are released as a result of allergen specific-IgE-FcεRI binding.
Release of the enzyme β-hexose-aminidase, which is present together with histamine in the granules of mast cells and basophils, can be used as an index of cellular degranulation (Tanaka et al., 1991, Chem. Pharm. Bull, 39, 2072-2076; McCloskey et al., 1988, Proc. Natl. Acad. Sci., USA, 85, 7260-7264).
The activity of the enzyme β-hexose-aminidase, released by the stimulated RBL 2H3 cells, was determined by the method described by Yamanishi et al., 1995, Jour. Biotech. Biochem., 59 (7), 1272-1275, which envisages measurement of the enzymatic activity by measuring the absorbance of the product p-nitrophenol generated by the synthetic substrate p-nitrophenyl-N-acetyl-β-D-glucosamide. 1x10^5 RBL 2H3 cells, trypsinized from plates at confluence, were resuspended in a volume of 80 µl of the culture medium (MEM + 10% inactivated fetal bovine serum) and distributed in each well of the 96-well plates (Costar). After 24 hours, 20 µl of medium containing anti-2,4-dinitrophenol monoclonal IgEs (DNP, Sigma, Cat. No. D-8406) was added to each well.
The microplates were incubated at 37°C for one hour and then washed three times with 100 µl of HBS buffer solution (10 mM HEPES, 135 mM NaCl, 5 mM KCI, 1 mM CaCl2, 0.5 mM MgCl2, 5.6 mM glucose, 0.1 % BSA, pH 7.4). After the washings, 100 µl of HBS containing the 2,4-dinitrophenol antigen conjugated to BSA (Sigma, Cat. No. A-6661) was added. As a control, 100 µl of HBS containing 1% Triton X-100 was added to some wells to determine the total amount of enzyme contained in the cellular granules.
After further incubation at 37°C for two hours, 30 µl of cellular supernatant or of cellular lysate was transferred to a new microplate, to which 50 µl of sodium citrate buffer at pH 4.5, containing 4 mM p-nitrophenyl-N-acetyl-β-D-glucosaminide (Sigma, Cat. No. N9376), a specific substrate for the enzyme β-hexose-aminidase, had been added beforehand. After incubation for two hours at 37°C, the reaction was stopped by adding 100 µl of glycine solution 0.2 M, pH 10.7. The enzymatic activity was determined by measuring the absorbance at 405 nm with a Microplate Reader Model 3550 EIA (Bio-Rad).
In preliminary experiments the immunoglobulins E and the antigen were added at various concentrations in order to determine the optimum concentrations for induction of the reaction of enzymatic release. The conditions identified experimentally correspond to 0.5 µg/ml of IgE and 0.05 µg/ml of antigen DNP conjugated to BSA.
To verify the capacity of the peptides of formula IB and of comparative peptides for inhibiting the degranulation of the RBL 2H3 cells, the peptides were added in the assay together with the antigen at concentrations between 0.1 and 500 µg/ml.

As to “(H-L-Cys(p-MeOBzl)-L-Arg-L-Thr-L-Tyr)2-Lys-Gly-Lys-OH [ID]”, the “inhibition of degranulation, result in words compared with peptide IB” value is recorded as “Results similar to the results obtained with peptide IB”.

(Values after patent EP1997826A2, “Synthetic ligands for immunoglobulins and pharmaceutical compositions containing them” (Tecnogen S.p.A., priority 2007, dated 2008).)
